The values below are quoted from earlier work in patent US20260209218A1, “3-PHENYLQUINAZOLINONES AS NOVEL ANTI-CANCER THERAPY” (HELMHOLTZ ZENTRUM MÜNCHEN - DEUTSCHES FORSCHUNGSZENTRUM FÜR …, priority 2022, published 2026).

For this series, the system named is ferroptosis-resistant tumor cells. Particulars: background statement, references 16-18; cited from earlier work.

Regarding `Cc1ccc(-c2c(C#N)c(N)n3c(nc4ccccc43)c2C#N)cc1` [iFSP1, 1-amino-3-(4-methylphenyl)-pyrido[1,2-a]benzimidazole-2,4-dicarbonitrile], the sensitisation towards ferroptosis result is recorded as “efficiently sensitizes ferroptosis-resistant tumor cells towards ferroptosis”.
